In US12415939B2, “Nano-adhesive and surface primer compound and use thereof” (The Regents of the University of California, priority 2015, dated 2025):
Blank lines part the entries; values can stand above or below the molecule they belong to.

Assays:
[1] = Cyclic voltammetry of catechol oxidation; format: physicochemical; conditions: DI water, scan rate 1 mV s−1, Ag/AgCl reference
Method: (§1) Cyclic voltammetry was performed on a Versastat 3 potentiostat from Ametek Co. These analyses were carried out using a three-electrode cell: a Pt wire as the counter electrode, an Ag/AgCl reference electrode, and a Carbon paste electrode (CPE) served as the working electrode. CPE is the best choice for adhesive materials because of its ability to be completely polished before each experiment. Catechol auto-oxidation was avoided by performing all electrochemical experiments with degassed deionized water in a glove bag under argon. Scan rate 1 mV s-1 was used for all experiments. CV of 5 mM synthesized polymers and 5 mM methyl catechol, a simple catechol-containing compound, were compared. Oxidation of Catechol carrying molecules occurred at more positive potentials than methyl catechol, indicating the unique structure of the dispersions provide shielding effects that stabilized catechol groups (FIG. 3).
Cyclic voltammetry was performed on a Versastat 3 potentiostat from Ametek Co. (Berwyn, PA). These analyses were carried out using a three-electrode cell: a Pt wire as the counter electrode, an Ag/AgCl reference electrode, and a Carbon paste electrode (CPE) served as the working electrode. CPE is the best choice for adhesive materials because of its ability to be completely polished before each experiment.
as §1, with “s^−1” for “s-1”, “molecules” for “polymers”, “groups. Z-Cat-Ben with an oxidation peak at 840 mV is more resistant to oxidation than the other species” for “groups”, “42).” for “3).”

[2] = Lap shear test of cured PMA resin on primed tooth enamel; design: species or system human
Method: 1 wt % primer solution was spread on mica, glass, tooth enamel, or a silicon wafer and incubated for 1 min, followed by thorough washing with methanol (for MDP, P1-P3) or DMSO (for P4) and drying by flowing nitrogen. The surfaces were exposed to a basic aqueous solution (pH 9, using sodium hydroxide), incubated for 1 min, and drying by flowing nitrogen (see FIG. 52). The methacrylic comonomer blend (Bis-GMA, TEGDMA, DMAEMA and CQ) was packed in a gelatin capsule (size #4, 5-mm diameter, Torpac Inc.) and placed up on top of the primer-treated substrates. The comonomer blend was cured (or crosslinked) for 1 min using a portable dental curing lamp (Foshan Liang Ya Dental Co., LY-A180, 420-480 nm, 1200-2000 mW·cm^−2) (see FIG. 53). Uniaxial compression was applied to the capsule at a rate of 0.05 inch min^−1 using a materials testing system (MTS Bionix 200) until the capsules are separated from the substrate. The lap shear fracture measurements were repeated at least 10 times for each condition.

[3] = SFA adhesion of cured PMA resin between primer-treated mica surfaces
Method: Atomically-smooth muscovite mica sheets were freshly cleaved (thickness of 2-5 μm) and attached on another large freshly cleaved mica backing sheet under a laminar flow hood and placed in a desiccator for clean storage. To ensure use of a fresh surface for each experiment, mica was peeled away from the backing sheet and glued on cylindrical disks using an epoxy glue (EPON 1004 F® from Exxon Chemicals). In each experiment, the mica surfaces were treated with one of the primer solutions, as described for the lap shear experiments, and then mounted in the SFA in a cross cylindrical geometry. In contrast to typical SFA experiments, which use an interferometric method to calculate the disk-disk separation distances and thus the interaction forces, in the SFA used here for adhesion testing, the disk separations were directly measured using semiconductor strain-gauged double cantilever springs (k=1000-10000 N/m)(see FIG. 67). After separating the surfaces, 100 […]1 of comonomer blend was injected between the two surfaces. Then, ˜600 mN of load was applied, followed by visible light curing for 1 min using the portable dental curing lamp (see FIG. 54G). Adhesion strength of cured polymer toward the mica was measured by detaching (unloading) two surfaces. All loading and unloading were performed using a coarse micrometer at the velocity of […]. The SFA measurements were repeated at least 5 times for each condition.

[4] = QCM-D adsorption of primers; format: physicochemical; conditions: for surface concentration of adsorbed layer: Sauerbrey, after rinsing
Method: A ‘static cell’ (often called ‘Open Module’) QCM-D (Q-Sense, Biolin Scientific) was employed to quantitatively evaluate the adsorption of each primer onto SiO2 surface using a quartz sensor (QSX 303, Biolin Scientific). Changes in resonance frequency (ΔF) and dissipation (ΔD) of the SiO2 were recorded and used to measure the adsorbed mass and layer viscoelasticity, respectively, of the primer deposited on the sensor. In detail, pure solvent (100 μl) was dropped onto the sensor and equilibrated for ˜20-30 min. Then, 2 wt % primer solution (100 μl) was dropped onto the sensor (this is labeled “Solution Drop-in” in FIG. 51) and equilibrated until the frequency and dissipation signals stabilized. To remove unbound primers, the sensor was rinsed with solvents (this is labeled “Solvent Rinsing” in FIG. 51) and equilibrated until frequency and dissipation signals stabilized.
Mass loss of P3 and P4 during the rinsing was negligible compared to P2 which lost 60% of initial mass, indicating outstanding adsorption efficiency of catechol-containing primers on SiO2 surfaces even compared to mussel foot protein adsorption (˜30% loss of mfp-3s^3). The priming thickness of P4 estimated by QCM-D is ˜3.1 nm which agrees with the average height of AFM images (˜3.5 nm), assuming that QCM-D measures the average thickness of a uniform layer. The smaller average thickness of P4 (˜3.1 nm) compared to the molecular contour length (˜4.8 nm) may be attributed to the flexible alkyl spacer in P4. The possibility of a softer, more flexible layer with P4 is supported by a higher change in dissipation (ΔD) compared to other primers.

[5] = Surface forces apparatus (SFA) cohesion/adhesion between thin films on mica; format: physicochemical; conditions: for cohesion (or adhesion) energy Wc: symmetric films adsorbed from 5 mM, DI water
Method: The interaction between two surfaces can be measured with nano-Newton level force resolution and Angstrom level resolution in the separation distance between the surfaces. The details of the SFA techniques have been describe in a work by Israelachvili et al. In a typical SFA experiment (FIG. 2C), the distance and the force between the surfaces are measured simultaneously. To begin with, the instrument is calibrated at large separation distances. When the two surfaces are not interacting, i.e., they are separated by large distances, the change in the separation between them is equal to the distance through which the motor moves the lower surface towards or away from the upper surface (or the upper surface driven by the piezo-tube moves towards the lower surface). However, once the surfaces are close enough to start interacting with each other, the measured separation distance deviates from the expected separation calibrated when there is no force between the surfaces. This deviation is due to the deflection of the double cantilever spring and is directly proportional to the force acting normally between the two opposing surfaces. Thus the normal force can be measured using Hooke's law, F=kΔx, where k is the spring constant of the double-cantilever spring and Δx=Dactual−Dapplied is the deflection of the spring, determined by taking the difference between the applied change in position of one of the surfaces Dapplied and the actual change in distance measured between the surfaces Dactual. The actual distance, Dactual, between the surfaces can be measured by multiple beam interferometry (MBI) and will be discussed below.
The distance between the surfaces, shape of the interface and the refractive index of the media between the surfaces can be accurately determined by Multiple Beam Interferometry (MBI) technique. In this technique, white light is directed through two back-silvered mica surfaces (or uniform and same thickness). As a white light passes between the mica surfaces, it undergoes interference due to the optical trap set up by the back silver on each of these surfaces giving rise to discrete wavelengths of light (FIG. 2C). These wavelengths of light are resolved in a spectrometer creating interference fringes known as ‘fringes of equal chromatic order’ (FECO). Since mica is birefringent, the FECO appears as doublets and termed as β and γ. Alternate fringes are termed as odd and even fringes with odd fringes having nodes at the center and even fringes with anti-nodes in the center. The FECO is then recorded on a camera and analyzed to determine the distance between the surfaces using the following equations: […]
The adhesion/cohesion energy of the synthetic zwitterionic molecules was investigated in SFA (SurForce LLC, Santa Barbara, CA). Two molecularly smooth freshly cleaved back silvered mica surfaces glued on cylindrical silica discs of radius of curvature, R˜2 cm, were mounted in the SFA and 50 μL of a colloidal dispersion of the synthetic molecules in DI water were injected between the surfaces at different concentrations (C=0.5-5 mM) and the forces between the thin films of the molecules were measured by Multiple Beam Interferometry (MBI). The adhesion forces between Z-Cat-C10 molecules on various surfaces, e.g., silica and copper, were also measured by AFM (MFP-3D, Asylum research, Goleta, CA) in DI water and ambient conditions, respectively, at room temperature. AFM probes with a silicon dioxide particle (10, 5, and 1 μm, respectively) on a silicon nitride (SN) cantilever-0.6 N m^−1 were purchased from Novascan Technologies, Inc (Ames, IA). Cantilever spring constants were measured for each force run. Images of Z-Cat-C10 coating on silicon wafer and copper plates were visualized in an AFM. […]

E1/2 [1]: ~0.12 V | E1/2 ([1]; listed as methyl catechol): 0.124 V
Compound: Cc1ccc(O)c(O)c1 [4-methylcatechol, reference compound]

Compound: C=C(C)C(=O)OCCCCCCCCCCOP(=O)(O)O [MDP, 10-methacryloyloxydecyl dihydrogen phosphate, reference compound]
lap shear strength σshear,max [2]: 3.1±0.2 MPa

surface concentration of adsorbed layer [4]: 0 ng/cm^2
Compound: C=CC(=O)OCc1ccccc1 [P1, Benzyl acrylate, reference compound]
lap shear strength σshear,max [2]: no increase in the lap shear strength | increase in adhesion vs plain mica (no primer) [3]: no increase in adhesion

surface concentration of adsorbed layer [4]: 230 ng/cm^2 | mass loss during rinsing ([4]; of initial mass): 60%
Compound: C=CC(=O)OCc1ccc(O)cc1 [P2, 4-Hydroxybenzyl acrylate]
lap shear strength σshear,max [2]: no increase in the lap shear strength | increase in adhesion vs plain mica (no primer) [3]: no increase in adhesion

film (hard-wall) thickness ([5]; deposited at 0.5 mM in DI water): 2 nm | hard-wall thickness ([5]; films adsorbed from 5 mM, mica): ~5 nm
Compound: CN(C)CCOP(=O)(O)OCCCc1ccccc1 [Z-Ben-C8]
cohesion (or adhesion) energy Wc ([5]; mica): without cohesive tendencies

Compound: CN(C)CCOP(=O)(O)OCCCc1ccc(O)c(O)c1 [Z-Cat-C4]
cohesion (or adhesion) energy Wc ([5]; mica): 19.2±2.4 mJ m^−2

Compound: CN(C)CCOP(=O)(O)OCCCc1ccc(O)c(O)c1 [Z-Cat-C6]
cohesion (or adhesion) energy Wc ([5]; mica): 9.6±1.1 mJ m^−2

Compound: CN(C)CCOP(=O)(O)OCCCc1ccc(O)c(O)c1 [Z-Cat-C8]
interaction energy ([5]; 0.5 mM concentration): ~22 mJ m^−2 | cohesion (or adhesion) energy Wc ([5]; mica): 2.5±0.3 mJ m^−2
